One series relates to SafetyScreen44 targets. The series can be described thus: SafetyScreen44 off-target panel (44 binding, enzymatic and transporter assays). The settings on record: 1 mM; threshold of 40% for binding competition; Figure 5. As to the method: Screening of potentially significant off-target effects to binding and enzyme targets was performed via SafetyScreen44 offered by Eurofins Cerep-Panlabs. Visabron c (4–4) was tested at 1 and 0.1 mM. Compound binding was calculated as the percentage of inhibition of the binding of a radioactively labeled ligand specific for each target. The compound enzyme inhibitory effect was calculated as the percentage of inhibition of control enzyme activity. Results showing inhibition higher than 40% were considered to represent significant effects of the tested compound. Results showing inhibition lower than 25% as obtained with 0.1 mM Visabron c (4–4) were not considered significant and were mostly attributable to the variability of the signal around the control level. In each experiment, the respective reference compound was tested concurrently with visabron c (4–4), and the data were compared with historical values determined at Eurofins. The experiment was statistically accepted in accordance with the Eurofins validation standard operating procedure.

Series [1] has as its system Jurkat cell migration across TNFα-stimulated HUVEC. The series can be described thus: Jurkat transmigration across TNFα-stimulated HUVEC monolayer. Type of series: cell-based, human. The settings on record: at 24 h; 1 mg/mL of antagonist; Figure 2B,C. On the procedure: Figure 2 Inhibitory effects of visabron c (4–4) on adhesion (A) and transmigration (B, C) of Jurkat cells through the monolayer of TNFα-activated HUVEC. (A) HUVEC were cultured on 96 well plates to 90% confluence in EGM-2 complete media. TNF-α (10 ng/mL) was added to each well for 16 h. Jurkat cells were labeled with calcein-AM ([…]) by 1 h incubation at 37 °C. After three washes, Jurkat cells (1 × 10^5 cells per mL) were mixed with appropriate concentrations of visabron or 10 μM visabres (inset) in EGM-2 media without FBS and supplements (growth factors) and incubated for 15 min at room temperature. […] Cell cultures extracts were measured using the fluorescence plate reader. […] Chambers were incubated at 37 °C, and measurement of fluorescence was performed at the indicated time points using a fluorescence plate reader with a set up bottom measurement option and using FITC filters. […]
trans-Endothelial leukocyte migration was assessed as follows: HUVEC cells were plated onto collagen type IV (5 μg/mL) coated polycarbonate inserts (Transwell, Costar, Cambridge, MA; diameter, 6.5 mm; pore size, 8 μm for a 24-well plate) in serum-containing endothelial cell growth medium and allowed to grow to confluence over 72 h. […] The medium and all washes were pooled, and the fluorescence in each well was quantified with a SPECTRAFluor Plus plate reader at λex = 485 nm and λem = 530 nm. […]

Numbered stars: 1 amine (or outer) side, 2 acyl side, 3 side chain; on linkers, the order of the positions; unused ones are H or OH. Bridge positions count the residues as written; N and C are the ends. Square brackets hold non-standard residues; d marks the D form. Peptide text beside a SMILES is read from it. CO = O=C([*:1])[*:2]; Nlys = NCCCCNCC(=O)O

For the molecule `CSCC[C@@H]1NC(=O)[C@H]([C@@H](C)O)NC(=O)CN(C(=O)[C@@H](N)CCCCN)CCCCNC(=O)NCCCCN(CC(=O)N[C@@H](CC(C)C)C(N)=O)C(=O)[C@H](CC(=O)O)NC(=O)[C@H](CC(C)C)NC1=O` [visabron c (4–4)] (H-K[Nlys]TMLD[Nlys]L-NH2; linker 2-7 via CO), in the series on SafetyScreen44 targets, the “Interaction with the majority of the physiological targets” value was “did not interact”.

Take “natalizumab: clinical-grade monoclonal antibody anti-α4β1 produced by Biogen Co. [reference compound]”: the “Inhibition of Jurkat migration across TNFα-stimulated HUVEC” value in series [1] is listed as “similar”.

(Values after paper PMC8717366, “Synthesis and Pharmacological Characterization of Visabron, a Backbone Cyclic Peptide Dual Antagonist of α4β1 (VLA-4)/α9β1 Integrin for Therapy of Multiple Sclerosis” (JACS Au, 2021).)
